{
  "source": "patent US10468722B2",
  "about": "“Organic synthesis applications of non-aqueous fluoride salt solutions” (CALIFORNIA INSTITUTE OF TECHNOLOGY, priority 2015, dated 2019)",
  "key": {"physchem": {"assay": "physchem", "details": "for Solubility in fluorinated solvents (in words): 3-fluorobenzonitrile and BTFE, useful concentrations e.g. >0.05 M; for Solubility vs. TMAF: in 3-fluorobenzonitrile, relative to TMAF; for solubility: organic solvent or mixture", "description": "NpMe3NF is determined to be soluble in a given solvent if the concentration of NpMe3NF dissolved within the solvent is greater than 0.05 M."}, "[1]": {"assay": "NpMe3NF stability in various solvents by 1H and 19F NMR", "format": "physicochemical", "description": "NpMe3NF stability in various solvents is analyzed by ^1H and ^19F NMR measurements. Preliminary criteria used for a solvent being “chemically stable” to the F^− ion are observation of a clear, sharp peak in the ^19F spectrum, alongside a 1:1:1 triplet arising from the DF2^− formation from the deuterated acetonitrile solvent (CD3CN)."}, "[2]": {"details": "in 2,6-difluoropyridine (2,6-F2Py)"}, "[3]": {"details": "in 3-methoxypropionitrile (3-MeOPN)"}},
  "data": [
    {"smiles": "CC(C)(C)C[N+](C)(C)CC(C)(C)C.[F-]", "note": "[Np2Me2NF, bis(2,2-dimethylpropyl)dimethylammonium fluoride]", "values": [
      {"measurement": "Solubility in fluorinated solvents (in words)", "setting": "physchem", "result": "significantly higher solubility"},
      {"measurement": "Solubility vs. TMAF", "setting": "physchem", "result": ">10", "unit": "x"},
      {"measurement": "solubility", "setting": "physchem", "result": 340, "unit": "mM"}
    ]},
    {"smiles": "CC(C)(C)C[N+](C)(C)C.[F-]", "note": "[NpMe3NF, (2,2-dimethylpropyl)trimethylammonium fluoride]", "values": [
      {"measurement": "Solubility in fluorinated solvents (in words)", "setting": "physchem", "result": "significantly higher solubility"},
      {"measurement": "Approximate Solubility", "setting": "physchem; in 1,3-Dimethyl-3,4,5,6-tetrahydro-2(1H)-pyrimidinone (DMPU)", "result": 110, "unit": "mM"},
      {"measurement": "Approximate Solubility", "setting": "physchem; in 2,2,2-trifluoroethyl trifluoroacetate (TFE-TFA)", "result": 950, "unit": "mM"},
      {"measurement": "Approximate Solubility", "setting": "physchem; in 2,3-difluorobenzonitrile (2,3-F2BN)", "result": 400, "unit": "mM"},
      {"measurement": "Approximate Solubility", "setting": "physchem; [2]", "result": 390, "unit": "mM"},
      {"measurement": "Approximate Solubility", "setting": "physchem; in 2-fluorobenzonitrile (2-FBN)", "result": 120, "unit": "mM"},
      {"measurement": "Approximate Solubility", "setting": "physchem; in 3-fluorobenzonitrile (3-FBN)", "result": 190, "unit": "mM"},
      {"measurement": "Solubility vs. TMAF", "setting": "physchem", "result": ">6", "unit": "x"},
      {"measurement": "Approximate Solubility", "setting": "physchem; [3]", "result": 780, "unit": "mM"},
      {"measurement": "Approximate Solubility", "setting": "physchem; in (Dimethylamino)acetonitrile (DMAN)", "result": 140, "unit": "mM"},
      {"measurement": "Approximate Solubility", "setting": "physchem; in Fluoroethylene carbonate (FEC)", "result": 710, "unit": "mM"},
      {"measurement": "Approximate Solubility", "setting": "physchem; in Tris(2,2,2-trifluoroethyl)phosphite (TTFP)", "result": 1050, "unit": "mM"},
      {"measurement": "Approximate Solubility", "setting": "physchem; in methoxyacetonitrile (MeOAN)", "result": 800, "unit": "mM"},
      {"measurement": "Approximate Solubility", "setting": "physchem; in phenyl trifluoroacetate (PhTFA)", "result": 470, "unit": "mM"},
      {"measurement": "Approximate Solubility", "setting": "physchem; in propionitrile (PN)", "result": 70, "unit": "mM"},
      {"measurement": "solubility", "setting": "physchem", "result": 190, "unit": "mM"},
      {"measurement": "Stability (1H and 19F NMR)", "setting": "[1]; [2]", "result": "good stability"},
      {"measurement": "Stability (1H and 19F NMR)", "setting": "[1]; [3]", "result": "poor stability"},
      {"measurement": "Stability (1H and 19F NMR)", "setting": "[1]; in BTFE", "result": "good stability"},
      {"measurement": "Stability (1H and 19F NMR)", "setting": "[1]; in Bis(2,2,2-trifluoroethyl) carbonate (BTFEC)", "result": "poor stability"},
      {"measurement": "Stability (1H and 19F NMR)", "setting": "[1]; in propionitrile (PN)", "result": "good stability"}
    ]}
  ]
}
